Tests used:
[1] = target: T1, DcpS (Homo sapiens, UniProt Q96C86); assay: FA screening of in-house library, 2i:DcpS system; format: binding; settings: 1 nM 2i, 25 nM DcpS, 1.5 µM inhibitor
T1 construct: His tag; made in house; host or cells: E. coli BL21(DE3) RIL
T1 sequence (Q96C86 1-337): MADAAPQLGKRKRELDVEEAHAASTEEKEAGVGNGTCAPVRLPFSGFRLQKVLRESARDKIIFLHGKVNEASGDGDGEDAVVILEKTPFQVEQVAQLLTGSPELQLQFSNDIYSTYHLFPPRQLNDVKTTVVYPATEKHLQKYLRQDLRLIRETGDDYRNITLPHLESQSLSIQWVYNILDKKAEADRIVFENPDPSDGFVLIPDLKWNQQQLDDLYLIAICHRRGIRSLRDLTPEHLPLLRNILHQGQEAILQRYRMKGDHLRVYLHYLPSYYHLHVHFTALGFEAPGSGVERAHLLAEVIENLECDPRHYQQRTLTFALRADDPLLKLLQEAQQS
Experimental: The Z’ factor was determined under conditions optimized for the competition assay. The Z’ value exceeded 0.8 for incubation times up to 1 h, making the assay suitable for screening experiments (Table 5). A screening experiment was then performed using the same compound library as that used for eIF4E screening. The results highlighted the impact of the triphosphate bridge modification on the affinity for the protein. […] The FA method also enabled the identification of unstable compounds, e.g., hydrozylable ligands for which determination of affinity is problematic (as observed by FA signal changes during the experiment; Fig. 7).
To evaluate the quality of the assay, the Z’ factor was determined for several protein-probe combinations. The assay was performed on 96-well microplates, where half of the samples were negative controls and the other half were positive controls.
For the screening experiments a small in-house library containing 21 ligands was used. Experiments were conducted in the same manner as Z’ factor determination, with exception that the ligand concentration was modified (eIF4E screening conditions: 1 nM 1e, 100 nM eIF4E, 750 nM ligand, DcpS screening conditions: 1 nM 2i, 25 nM DcpS, 1.5 µM ligand). For eIF4E screening experiment, the 1e:eIF4E system was used, for DcpS screening 2i:DcpS system was used.

[2] = system: eIF4E; design: method as in PMID 22316555; settings: cited from earlier work

## C[n+]1cn([C@@H]2O[C@H](COP(=O)([O-])NP(=O)([O-])OP(=O)([O-])OP(=O)([O-])OC[C@H]3O[C@@H](n4cnc5c(=O)[nH]c(N)nc54)[C@H](O)[C@@H]3O)[C@@H](O)[C@H]2O)c2nc(N)[nH]c(=O)c21.[Na+].[Na+].[Na+] [m^7GpNHpppG]
[1]
  inhibitory potency in DcpS screening: strong DcpS inhibitors
[2]
  association constant KAS: 112.3 ± 1.8 µM⁻¹

Source: PMC8032668, “Evaluation of carboxyfluorescein-labeled 7-methylguanine nucleotides as probes for studying cap-binding proteins by fluorescence anisotropy” (Scientific Reports, 2021)
